Test results reported in article PMC6943619, “Synthesis and Pharmacological Evaluation of Hybrids Targeting Opioid and Neurokinin Receptors” (Molecules, 2019).
Where a SMILES comes first, the peptide text is derived from it. Bridges are numbered along the chain shown (N, C = ends). [ ]: non-standard residue; d: D form. Nle = CCCC[C@H](N)C(=O)O

Biological target: human NK1 (Homo sapiens, UniProt P25103)
Test: Calcium mobilization assay, inhibition response experiments against SP
Format: cell-based
Design: expressed in transfected cells; host or cells: CHO cells (gift of Prof. T. Costa, ISS, Rome)
Experimental: Following aspiration of the loading solution and a washing step, serial dilutions of peptide stock solutions were added.
The pharmacological terminology adopted in this paper is consistent with International Union of Basic and Clinical Pharmacology (IUPHAR) recommendations. Concentration–response curves were analyzed by nonlinear regression using Graph Pad Prism 6.0 (La Jolla, CA, USA). […] Concentration–response curves were fitted with the four-parameter logistic nonlinear regression model (1) Effect=baseline+Emax−baseline/1+10^logEC50−X·n where X is the agonist concentration and n is the Hill coefficient. Ligand efficacy was expressed as intrinsic activity (α) calculated as a ratio of the peptide Emax to the Emax of the standard agonist (Supplementary Materials, Figure S7). […] All statistical analyses were performed using Graph Pad Prism 6.0 (La Jolla, CA, USA). Differences between groups were analyzed with one-way ANOVA and a post hoc multiple comparison by the Student–Newman–Keuls test. A probability level of 0.05 or smaller was used to indicate statistical significance.

human NK1, sequence (P25103 whole entry): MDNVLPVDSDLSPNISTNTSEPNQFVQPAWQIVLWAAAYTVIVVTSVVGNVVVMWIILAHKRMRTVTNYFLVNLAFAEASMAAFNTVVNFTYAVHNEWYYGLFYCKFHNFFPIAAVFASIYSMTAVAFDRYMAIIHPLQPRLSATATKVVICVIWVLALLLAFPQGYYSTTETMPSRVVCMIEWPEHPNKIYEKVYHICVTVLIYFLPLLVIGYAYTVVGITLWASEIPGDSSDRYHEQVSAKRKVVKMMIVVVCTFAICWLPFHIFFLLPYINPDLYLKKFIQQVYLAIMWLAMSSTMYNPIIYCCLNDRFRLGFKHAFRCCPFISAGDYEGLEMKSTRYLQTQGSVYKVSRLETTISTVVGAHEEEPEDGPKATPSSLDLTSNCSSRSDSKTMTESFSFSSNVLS

CCCC[C@H](NC(=O)[C@H](CC(C)C)NC(=O)[C@@H](Cc1c[nH]c2ccccc12)NC(=O)[C@H](Cc1ccccc1)NC(=O)[C@@H](Cc1c[nH]c2ccccc12)NC(=O)[C@H](CC(N)=O)NC(=O)[C@@H]1CC(=O)NCCCC[C@@H](NC(=O)[C@@H](N)Cc2ccc(O)cc2)C(=O)N[C@@H](Cc2ccccc2)C(=O)N[C@@H](Cc2ccccc2)C(=O)N1)C(N)=O [compound 2, Tyr-[D-Lys-Phe-Phe-Asp]-Asn-D-Trp-Phe-D-Trp-Leu-Nle-NH2] (H-Y[dK]FFDN[dW]F[dW]L[Nle]-NH2; lactam 2-5)
Kb: 46.8 nM
